Measurements reported in US20250000865A1, “COMPOUND FOR REDUCING URIC ACID LEVELS” (NEWSOARA BIOPHARMA CO., LTD., priority 2021, published 2025).

Test system: healthy subjects
Assay: Phase I clinical trial, multiple-dose groups (once a day, 7 consecutive days): uric acid index before and after treatment
Format: in vivo, human
Details: for Uric acid (UA) Mean (standard deviation) / Uric acid (UA) Median / Uric acid (UA) Minimum value / Uric acid (UA) maximum value / Uric acid (UA) Changes over baseline at last visit (on day 14), Mean (standard deviation) / Uric acid (UA) Changes over baseline at last visit (on day 14), Median / Uric acid (UA) Changes over baseline at last visit (on day 14), Minimum value / Uric acid (UA) Changes over baseline at last visit (on day 14), maximum value / Uric acid (UA) Changes over baseline on day 2, Mean (standard deviation) / Uric acid (UA) Changes over baseline on day 2, Median / Uric acid (UA) Changes over baseline on day 2, Minimum value / Uric acid (UA) Changes over baseline on day 2, maximum value / Uric acid (UA) Changes over baseline on day 11, Mean (standard deviation) / Uric acid (UA) Changes over baseline on day 11, Median / Uric acid (UA) Changes over baseline on day 11, Minimum value / Uric acid (UA) Changes over baseline on day 11, maximum value / Uric acid (UA) Changes over baseline on days 4-6, Mean (standard deviation) / Uric acid (UA) Changes over baseline on days 4-6, Median / Uric acid (UA) Changes over baseline on days 4-6, Minimum value / Uric acid (UA) Changes over baseline on days 4-6, maximum value: N = 9
Method: The changes of uric acid levels in subjects in single-dose and multi-dose groups of Compound I are shown in FIG. 1A (single dose of 6 mg and single dose of 10 mg), FIG. 1B (single dose of 20 mg and single dose of 30 mg), and FIG. 2 (multi-dose of 10 mg and multi-dose of 20 mg). The corresponding results are also shown in Tables 1.1, 1.2, 1.3, and 2.1, and tables 2.2, 2.3, and 2.4.

[1] = Baseline, multiple dose 10 mg once a day 7 days
[2] = Baseline, multiple dose 20 mg once a day 7 days
[3] = Day 2, multiple dose 10 mg once a day 7 days
[4] = Day 2, multiple dose 20 mg once a day 7 days
[5] = Day 11, multiple dose 10 mg once a day 7 days
[6] = Day 11, multiple dose 20 mg once a day 7 days
[7] = Days 4-6, multiple dose 10 mg once a day 7 days
[8] = Days 4-6, multiple dose 20 mg once a day 7 days
[9] = Last visit (day 14), multiple dose 10 mg once a day 7 days
[10] = Last visit (day 14), multiple dose 20 mg once a day 7 days
[11] = multiple dose 10 mg once a day 7 days
[12] = multiple dose 20 mg once a day 7 days

## COc1cccc2c1ncc1c(=O)n(C3CCC(C(=O)O)CC3)c(=O)n(-c3cccc(Cl)c3)c12 (centres unmarked) [Compound I, 4-[1-(3-chlorophenyl)-7-methoxy-2,4-dioxo-pyrimido[5,4-c]quinolin-3-yl]cyclohexanecarboxylic acid]
[1]
  Uric acid (UA) Mean (standard deviation): 314.4 (84.59) μmol/L
  Uric acid (UA) Median: 290.0 µmol/L
  Uric acid (UA) Minimum value: 215 µmol/L
  Uric acid (UA) maximum value: 452 µmol/L
[2]
  Uric acid (UA) Mean (standard deviation): 337.2 (50.38) μmol/L
  Uric acid (UA) Median: 349.0 µmol/L
  Uric acid (UA) Minimum value: 259 µmol/L
  Uric acid (UA) maximum value: 400 µmol/L
[3]
  Uric acid (UA) Mean (standard deviation): 254.9 (74.41) μmol/L
  Uric acid (UA) Median: 248.0 µmol/L
  Uric acid (UA) Minimum value: 155 µmol/L
  Uric acid (UA) maximum value: 397 µmol/L
[4]
  Uric acid (UA) Mean (standard deviation): 221.6 (63.82) μmol/L
  Uric acid (UA) Median: 216.0 µmol/L
  Uric acid (UA) Minimum value: 142 µmol/L
  Uric acid (UA) maximum value: 373 µmol/L
[5]
  Uric acid (UA) Mean (standard deviation): 325.1 (67.57) μmol/L
  Uric acid (UA) Median: 314.0 µmol/L
  Uric acid (UA) Minimum value: 222 µmol/L
  Uric acid (UA) maximum value: 439 µmol/L
[6]
  Uric acid (UA) Mean (standard deviation): 341.8 (58.10) μmol/L
  Uric acid (UA) Median: 323.0 µmol/L
  Uric acid (UA) Minimum value: 262 µmol/L
  Uric acid (UA) maximum value: 460 µmol/L
[7]
  Uric acid (UA) Mean (standard deviation): 201.8 (58.87) μmol/L
  Uric acid (UA) Median: 204.0 µmol/L
  Uric acid (UA) Minimum value: 119 µmol/L
  Uric acid (UA) maximum value: 307 µmol/L
[8]
  Uric acid (UA) Mean (standard deviation): 158.0 (51.31) μmol/L
  Uric acid (UA) Median: 140.0 µmol/L
  Uric acid (UA) Minimum value: 105 µmol/L
  Uric acid (UA) maximum value: 267 µmol/L
[9]
  Uric acid (UA) Mean (standard deviation): 326.9 (74.58) μmol/L
  Uric acid (UA) Median: 337.0 µmol/L
  Uric acid (UA) Minimum value: 219 µmol/L
  Uric acid (UA) maximum value: 422 µmol/L
[10]
  Uric acid (UA) Mean (standard deviation): 378.4 (37.55) μmol/L
  Uric acid (UA) Median: 376.0 µmol/L
  Uric acid (UA) Minimum value: 309 µmol/L
  Uric acid (UA) maximum value: 440 µmol/L
multi-dose groups
  uric acid level on the following days (days 4-6): continuous decrease
multi-dose groups, certain dose dependence
  uric acid level the next day after administration: decreases obviously
[11]
  Uric acid (UA) Changes over baseline at last visit (on day 14), Mean (standard deviation): 12.4 (37.22) μmol/L
  Uric acid (UA) Changes over baseline at last visit (on day 14), Median: 6.0 µmol/L
  Uric acid (UA) Changes over baseline at last visit (on day 14), Minimum value: -45 µmol/L
  Uric acid (UA) Changes over baseline at last visit (on day 14), maximum value: 58 µmol/L
  Uric acid (UA) Changes over baseline on day 2, Mean (standard deviation): −59.6 (40.77) μmol/L
  Uric acid (UA) Changes over baseline on day 2, Median: -50.0 µmol/L
  Uric acid (UA) Changes over baseline on day 2, Minimum value: -135 µmol/L
  Uric acid (UA) Changes over baseline on day 2, maximum value: 6 µmol/L
  Uric acid (UA) Changes over baseline on day 11, Mean (standard deviation): 10.7 (31.86) μmol/L
  Uric acid (UA) Changes over baseline on day 11, Median: 15.0 µmol/L
  Uric acid (UA) Changes over baseline on day 11, Minimum value: -52 µmol/L
  Uric acid (UA) Changes over baseline on day 11, maximum value: 60 µmol/L
  Uric acid (UA) Changes over baseline on days 4-6, Mean (standard deviation): −112.7 (57.68) μmol/L
  Uric acid (UA) Changes over baseline on days 4-6, Median: -118.0 µmol/L
  Uric acid (UA) Changes over baseline on days 4-6, Minimum value: -234 µmol/L
  Uric acid (UA) Changes over baseline on days 4-6, maximum value: -35 µmol/L
[12]
  Uric acid (UA) Changes over baseline at last visit (on day 14), Mean (standard deviation): 41.2 (44.32) μmol/L
  Uric acid (UA) Changes over baseline at last visit (on day 14), Median: 40.0 µmol/L
  Uric acid (UA) Changes over baseline at last visit (on day 14), Minimum value: -11 µmol/L
  Uric acid (UA) Changes over baseline at last visit (on day 14), maximum value: 135 µmol/L
  Uric acid (UA) Changes over baseline on day 2, Mean (standard deviation): −115.7 (55.40) μmol/L
  Uric acid (UA) Changes over baseline on day 2, Median: -142.0 µmol/L
  Uric acid (UA) Changes over baseline on day 2, Minimum value: -184 µmol/L
  Uric acid (UA) Changes over baseline on day 2, maximum value: -26 µmol/L
  Uric acid (UA) Changes over baseline on day 11, Mean (standard deviation): 4.6 (43.38) μmol/L
  Uric acid (UA) Changes over baseline on day 11, Median: 2.0 µmol/L
  Uric acid (UA) Changes over baseline on day 11, Minimum value: -52 µmol/L
  Uric acid (UA) Changes over baseline on day 11, maximum value: 67 µmol/L
  Uric acid (UA) Changes over baseline on days 4-6, Mean (standard deviation): −179.2 (54.55) μmol/L
  Uric acid (UA) Changes over baseline on days 4-6, Median: -175.0 µmol/L
  Uric acid (UA) Changes over baseline on days 4-6, Minimum value: -260 µmol/L
  Uric acid (UA) Changes over baseline on days 4-6, maximum value: -108 µmol/L
